Source: the NIST ThermoML archive (doi:10.1016/j.tca.2015.01.012)

Conditions: 101.33 kPa, Crystal; for molar entropy: Small (less than 1 g) adiabatic calorimetry; for mass density: X-ray diffraction

O=C(O)c1cccnc1 [3-carboxylpyridine]
Conditions	mass density [kg/m3]	molar entropy [J/K/mol]
1 K	–	0.0005
2 K	–	0.004
3 K	–	0.0136
4 K	–	0.0323
5 K	–	0.063
6 K	–	0.1089
7 K	–	0.1788
8 K	–	0.2634
9 K	–	0.3747
10 K	–	0.5086
15 K	–	1.592
20 K	–	3.297
25 K	–	5.543
30 K	–	8.212
35 K	–	11.2
40 K	–	14.39
45 K	–	17.7
50 K	–	21.08
60 K	–	27.91
70 K	–	34.69
80 K	–	41.32
90 K	–	47.75
100 K	–	53.98
110 K	–	60.02
120 K	–	65.91
130 K	–	71.64
140 K	–	77.24
150 K	1481	82.72
160 K	–	88.1
170 K	–	93.38
175 K	1477	–
180 K	–	98.6
190 K	–	103.7
200 K	1471	108.9
210 K	–	113.9
220 K	–	119
225 K	1465	–
230 K	–	124
240 K	–	129
250 K	1460	134.1
260 K	–	139.1
270 K	–	144.2
273.15 K	–	145.7
275 K	1454	–
280 K	–	149.2
290 K	–	154.3
298.15 K	–	158.4
300 K	1444	159.3
310 K	–	164.4
320 K	–	169.5
325 K	1436	–
330 K	–	174.6
340 K	–	179.7
346 K	–	182.8
350 K	1430	–
375 K	1422	–
400 K	1413	–
425 K	1406	–
